Values quoted from earlier work as cited in patent publication US9029427B2, “Controlled release solid preparation” (Asahi Kasei Chemicals Corporation, priority 2005, dated 2015).

Conditions: water

SMILES	amount of solvent required for dissolving 1 g of solute
CCOc1ccccc1C(N)=O [Ethenzamide]	≥ 10000 cm^3
O=C([O-])c1ccccc1O.[Na+] [sodium salicylate]	less than 1 cm^3
